Experimental data reported in PMC10535864, “Novel Aminopyrimidine-2,4-diones, 2-Thiopyrimidine-4-ones, and 6-Arylpteridines as Dual-Target Inhibitors of BRD4/PLK1: Design, Synthesis, Cytotoxicity, and Computational Studies” (Pharmaceuticals, 2023).
Where two headings read alike, the source gives them in different places.

Legend:
[1] = test system: MDA-MB-231 breast cancer cells; experiment: MTT cytotoxicity assay, MDA-MB-231; format: cell-based; conditions: MDA-MB-231, MTT
Summary of the method: (§1)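 Cells seeded at 1 X 10^5 cells/mL and grown 24 h at 37°C to a monolayer, then exposed to two-fold compound dilutions in RPMI with 2% serum, six doses. MTT added for 4 h at 37°C, formazan dissolved in DMSO, OD read at 560 nm minus 620 nm background. IC50 from dose-response.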

U-937 renal cancer cells = experiment: MTT cytotoxicity assay, U-937; format: cell-based; conditions: MTT; for Toxicity %: U937;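 for all read-outs here: Six-dose MTT colorimetric assay on cell monolayers, formazan absorbance read at 560 nm with 620 nm background removed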
[2] = MTT cytotoxicity assay, U-937; format: cell-based; conditions: Homo sapiens, U-937, U937, MTT;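 note: Six-dose MTT colorimetric assay on cell monolayers, formazan absorbance read at 560 nm with 620 nm background removed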
human recombinant PLK1 = human recombinant PLK1 (Homo sapiens, UniProt P53350); experiment: PLK1 inhibitory activity assay (ADP-Glo Kinase Assay); format: biochemical; conditions: for IC50: mean of three independent experiments, read-out: PLK1 IC50 ± SD; for %inh: PLK1 Lab Report
Description: The BRD4 and PLK1 inhibitory assays were carried out in vitro in accordance with the manufacturer’s instructions; BRD4 was assessed using AlphaLISA Bromodomain Assay Protocol, and PLK1 kinase was tested using the ADP-Glo™ Kinase Assay Protocol, as detailed in the Supplementary file. […]
1.2.2. PLK1 inhibitory activity assay
The kinase reaction was performed with active human recombinant PLK1 and combined with the substrate dephosphorylated casein (positive control) using 1 X reaction buffer (40 mM Tris-HCl pH 7.4, 20 mM MgCl2, 0.1 mg/mL BSA, 1 mM DTT) and 20 μM ATP. The reaction was incubated at30°C for 45 minutes. The amount of ATP transferred was calculated using […] reagent from Promega according to the manufacturer’s instruction.
A plate-reading luminometer isused to measure the luminescence. […]

[3] = test system: HT-29 colorectal adenocarcinoma cells; experiment: MTT cytotoxicity assay, HT-29; format: cell-based; conditions: MTT
Summary of the method: as §1

BRD4 (BD2) = target: T1, BRD4 (BD2) (Homo sapiens, UniProt O60885); experiment: BRD4 inhibitory activity assay (AlphaLISA Bromodomain Assay); format: binding;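 note: in vitro inhibition of recombinant BRD4 BD2 bromodomain binding to a BET bromodomain ligand, read by AlphaLISA proximity signal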
T1 construct: BRD4 (BD2) should be thawed on ice; purchased
Description: The BRD4 and PLK1 inhibitory assays were carried out in vitro in accordance with the manufacturer’s instructions; BRD4 was assessed using AlphaLISA Bromodomain Assay Protocol [67], and PLK1 kinase was tested using the ADP-Glo™ Kinase Assay Protocol [68], as detailed in the Supplementary file.
The BRD4 and PLK1 inhibitory assays were carried out in vitro in accordance with the manufacturer's instructions; BRD4 was assessed using AlphaLISA Bromodomain Assay Protocol [67], and PLK1 kinase was tested using the ADP-Glo™ Kinase Assay Protocol [68],
The master mixture was prepared as follows: N wells × (2.5 µL 3x BRD Homogeneous Assay Buffer 1 + 1 µL BET Bromodomain Ligand + 1.5 µL H2O). BRD4 (BD2) should be thawed on ice. Simply, the protein-containing tube was spined to recover the full content of the tube after the firstthaw. Both proteins should be aliquoted into single-use aliquots. Immediately, any remaining undiluted protein should be stored in aliquots at -80°C. BRD4 (BD2) was diluted in 1x BRD Homogeneous Assay Buffer 1 at 4 ng/µL. The diluted proteins were kept on ice until they were used. 5 µl of the master mixture is added to each well designated for the “Positive Control”, “Test Inhibitor”, and “Blank”. For the “Substrate Control”, 2.5 µL 3x BRD Homogeneous Assay Buffer 1 + 1 µL Non-acetylated Ligand 1 + 1.5 µL H2O is added. Each “Test Inhibitor” well received 2.5 µL of inhibitor solution, while the “Positive
Control”, “Substrate Control”, and “Blank” wells received 2.5 µL of the same solution without inhibitor (inhibitor buffer). Then, the “Blank” well is filled with 2.5 µL of 1x BRD Homogeneous Assay Buffer 1. After that, GSH
10 µL per well is added, the plate isshaken, and itis incubated at room temperature for 30 minutes. Streptavidin-
10 µL is added per well and incubated at room temperature for further 15 – 30 minutes [67]. The Alpha counts were read using the EnVision® multimode plate reader with the standard Alpha detection settings.

[4] = test system: caspase-3 gene in MDA-MB-231 cells; experiment: RT-PCR gene expression, caspase-3; format: cell-based; conditions: 48 h treatment, control = 1
Description: (§2) As well, there was an apparent increase in caspase-3, showing 3.9-fold more expression than in control cells.
(§3) Fluorometric analysis was used to gauge the level of these genes’ expression. The procedure for the used kit was carried out in accordance with the manufacturer’s instructions, which are detailed in the Supplementary file. […]
(§4) […] at pH 7.4). The flow cytometer was then used to examine the cells […]
(§5) 1.4.Estimation of apoptotic and anti-apoptotic gene markers […]
(§6) such as Bax and caspase-3, as well as anti-apoptotic genes such as Bcl-2, was studied using the BIORAD iScriptTM One-Step RT-PCR kit with SYBR® Green. MDA-MB-231 cells were cultured before being treated for 48 hours […]
(§7) Fluorometric analysis was used to gauge the level of these genes' expression. The procedure for the used kit was carried out in accordance with the manufacturer's instructions, which are detailed as follows:
(§8) 1.4.1. RNA isolation and reverse transcription m RNA isolation iscarried out using an RNeasy extraction kit,up to 1 x 10^7 cells, depending on the cell line. Cells are disrupted in RNeasy Lysis Buffer (RLT buffer), homogenized, then ethanol is added to the lysate, creating conditions that promote selective binding of RNA to the RNeasy membrane. […]

[5] = test system: BAX gene in MDA-MB-231 cells; experiment: RT-PCR gene expression, BAX; format: cell-based; conditions: 48 h treatment, control = 1
Description: as §2, §3, §4, §5, §6, §7, §8

MDA-MB-231 cells [6] = experiment: Cell cycle analysis, propidium iodide flow cytometry; format: cell-based; conditions: treated at IC50 concentration, 48 h, control 9.19%
Source text: (§9) The results are indicated as a dot plot graph with four quadrant images (Figure 5B). […] However, both compounds also raised the necrotic percent by 1.8- and 2.8-fold, respectively, compared to non-treated cells. Overall, these findings implied that compound 7 could exert anticancer activity by producing cell cycle arrest at the G2/M phase and inducing apoptosis.
(§10) An Epics XL-MCL™ Flow Cytometer and Flowing software 2012 were used to count and analyze stained cells. The Supplementary file contains detailed descriptions of the flow cytometric analysis of cell-cycle distribution and cellular apoptosis. […]
(§11) 1.3.Cell cycle and apoptosis screening […]
(§12) investigated using an Ab-139418 propidium iodide flow cytometry kit and an Annexin-V assay and biparametric cytofluorimetric analysis, respectively, as instructed by the manufacturer. IC50s of both 7 and […]
Cytometer and Flowing software were used to count and analyze stained cells. The Supplementary file contains detailed descriptions of the flow cytometric analysis of cell-cycle distribution and cellular apoptosis.
1.3.1. Cell cycle analysis […]
a six-well plate containing MDA-MB-231 breast cancer cells was seeded with 1 X 10^5 cells per well and then […]
Following that, cells were gathered and fixed in ice-cold 70% ethanol at 4 °C for 12 hours. The cells were then rinsed with cold Phosphate Buffer Saline (PBS) and incubated for 30 minutes at 37°C in 0.5 mL of PBS after the ethanol was removed. Propidium iodide was used to stain the cells for 30 min while they were in the dark. DNA content was determined using a flow cytometer. […]

[7] = test system: Bcl-2 gene in MDA-MB-231 cells; experiment: RT-PCR gene expression, Bcl-2; format: cell-based; conditions: 48 h treatment, control = 1
Description: as §2, §3, §4, §5, §6, §7, §8

MDA-MB-231 cells [8] = experiment: Apoptosis screening, annexin V-FITC/PI flow cytometry; format: cell-based; conditions: compared to non-treated control MDA-MB-231 cells
Source text: as §9, §10, §11, §12
Cytometer and Flowing software were used to count and analyze stained cells. The Supplementary file contains detailed descriptions of the flow cytometric analysis of cell-cycle distribution and cellular apoptosis. […]
1.3.2. Apoptosis screening […]
plate received 1 X 105 conc. breast cancer (MDA-MB-231) cells that were then incubated for 24 hours. The cells […]
with PBS, and stained for 15 min at room temperature in the dark with annexin V-FITC and PI in binding buffer (10 […]
µM HEPES, 140 µM NaCl, and 2.5 µM CaCl2 at pH 7.4). […]
high-quality RNA iseluted in RNase-free water.
1.4.2. Master mix preparation
All the following reagents were mixed together to give a totalvolume (50 μL). 2X SYBR® Green RT-PCR reaction mixture (25 μL), forward primer (10 μM) (1.5 μL), reverse primer (10 μM) (1.5 μL), nuclease-free H2O (11 μL), RNA template (1 pg to 100 ng totalRNA) (10 μL) and iScript reverse transcriptase for One-Step RT-PCR (1 μL).
1.4.3. Amplification protocol
Incubate complete reaction mixture in a real-time thermal detection system (Rotorgene) as follows: cDNA synthesis:
10 min at 50 °C, iScript reverse transcriptase inactivation: 5 min at 95 °C, polymerase chain reaction (PCR) cycling and detection (30–45 cycles): 10 s at 95 °C and 30 s at 55 °C to 60 °C (data collection step) and melt curve analysis:
1 min at95 °C and 1 min at55 °C and 10 s at55 °C (80 cycles, increasing each by 0.5 °C each cycle).

Chain of human recombinant PLK1 (P53350 whole entry): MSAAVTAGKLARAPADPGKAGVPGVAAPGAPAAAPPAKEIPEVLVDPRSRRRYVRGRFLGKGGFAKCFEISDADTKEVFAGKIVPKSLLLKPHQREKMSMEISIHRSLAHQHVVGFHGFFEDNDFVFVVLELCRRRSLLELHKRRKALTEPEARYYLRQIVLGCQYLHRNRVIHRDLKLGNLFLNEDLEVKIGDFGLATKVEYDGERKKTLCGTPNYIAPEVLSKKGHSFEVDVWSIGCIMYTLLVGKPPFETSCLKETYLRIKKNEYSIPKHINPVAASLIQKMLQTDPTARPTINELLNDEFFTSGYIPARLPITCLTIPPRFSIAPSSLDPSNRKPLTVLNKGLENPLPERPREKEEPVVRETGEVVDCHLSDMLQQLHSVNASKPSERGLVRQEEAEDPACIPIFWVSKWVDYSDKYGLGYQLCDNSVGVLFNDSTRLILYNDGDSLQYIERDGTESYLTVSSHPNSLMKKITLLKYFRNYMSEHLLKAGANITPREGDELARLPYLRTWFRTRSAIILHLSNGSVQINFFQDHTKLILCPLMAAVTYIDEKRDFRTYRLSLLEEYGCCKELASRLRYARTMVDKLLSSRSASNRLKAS

With `COc1ccc(-c2cnc3c(n2)c(=O)[nH]c(=O)n3Cc2ccccc2)cc1` [Compound 9, 1-Benzyl-6-(4-methoxyphenyl)pteridine-2,4(1H,3H)-dione] the melting point was > 300 °C, the IC50 ([1]; Homo sapiens, mean of three independent experiments ± SD, read-out: IC50 Value MDA-MB-231) was 2070 ± 30 nM and the viability at 0.312 µM ([1]; Homo sapiens, 0.312 uM) was 99.7%. The viability at 0.625 µM ([1]; Homo sapiens, 0.625 uM) was 99.2%, the viability at 1.25 µM ([1]; Homo sapiens, 1.25 uM) was 86.2% and the viability at 2.5 µM ([1]; Homo sapiens, 2.5 uM) was 33%. It also gave a viability at 5 µM ([1]; Homo sapiens, 5 uM) of 13.5%, a viability at 10 µM ([1]; Homo sapiens, 10 uM) of 5.45% and a Toxicity % ([1]; 0.312 uM) of 0.266%. It also gave a Toxicity % ([1]; 0.625 uM) of 0.7979%, a Toxicity % ([1]; 1.25 uM) of 13.79% and a Toxicity % ([1]; 2.5 uM) of 66.98%. For the same compound, the Toxicity % ([1]; 5 uM) was 86.48%, the Toxicity % ([1]; 10 uM) was 94.55% and the IC50 (U-937 renal cancer cells; Homo sapiens, U-937, mean of three independent experiments ± SD, read-out: IC50 Value U-937) was 4420 ± 180 nM. For the same compound, the Toxicity % (U-937 renal cancer cells; 0.312 uM) was 0.2179%, the Toxicity % (U-937 renal cancer cells; 0.625 uM) was 0% and the Toxicity % (U-937 renal cancer cells; 1.25 uM) was 1.416%. For the same compound, the Toxicity % (U-937 renal cancer cells; 2.5 uM) was 23.04%, the Toxicity % (U-937 renal cancer cells; 5 uM) was 58.01% and the Toxicity % (U-937 renal cancer cells; 10 uM) was 80.66%. It also gave a viability at 0.312 µM ([2]; 0.312 uM) of 99.8%, a viability at 0.625 µM ([2]; 0.625 uM) of 100% and a viability at 1.25 µM ([2]; 1.25 uM) of 98.6%. It also gave a viability at 2.5 µM ([2]; 2.5 uM) of 77%, a viability at 5 µM ([2]; 5 uM) of 42% and a viability at 10 µM ([2]; 10 uM) of 19.3%. The IC50 (human recombinant PLK1) was 41 ± 1 nM, the Toxicity % ([3]; HT29, 0.312 uM) was 0.2584% and the Toxicity % ([3]; HT29, 0.625 uM) was 0.08613%. The Toxicity % ([3]; HT29, 1.25 uM) was 0.08613%, the Toxicity % ([3]; HT29, 2.5 uM) was 12.36% and the Toxicity % ([3]; HT29, 5 uM) was 68.22%. The Toxicity % ([3]; HT29, 10 uM) was 88.67%, the viability at 0.312 µM ([3]; Homo sapiens, HT-29, HT29, 0.312 uM) was 99.7% and the viability at 0.625 µM ([3]; Homo sapiens, HT-29, HT29, 0.625 uM) was 99.9%. The viability at 1.25 µM ([3]; Homo sapiens, HT-29, HT29, 1.25 uM) was 99.9%, the viability at 2.5 µM ([3]; Homo sapiens, HT-29, HT29, 2.5 uM) was 87.6% and the viability at 5 µM ([3]; Homo sapiens, HT-29, HT29, 5 uM) was 31.8%. It also gave a viability at 10 µM ([3]; Homo sapiens, HT-29, HT29, 10 uM) of 11.3%, an IC50 ([3]; Homo sapiens, HT-29, mean of three independent experiments ± SD, read-out: IC50 Value HT-29) of 4110 ± 50 nM and an IC50 (BRD4 (BD2); mean of three independent experiments, read-out: BRD4 IC50 ± SD) of 179 ± 8 nM.
For `CC[C@@H]1C(=O)N(C)c2cnc(Nc3ccc(C(=O)N[C@H]4CC[C@H](N5CCN(CC6CC6)CC5)CC4)cc3OC)nc2N1C(C)C` [Volasertib, reference compound], the “Gene expression Caspase-3 (apoptotic gene)” value [4] was 5.531 fold, the “Gene expression BAX (apoptotic gene)” value [5] was 5.332 fold and the “DNA content % at cell cycle phase %G2/M” value (MDA-MB-231 cells [6]) was 17.38%. The “%inh” value (human recombinant PLK1; conc 0.01 (unit not given)) was 42%, the “%inh” value (human recombinant PLK1; conc 0.1 (unit not given)) was 58% and the “%inh” value (human recombinant PLK1; conc 1 (unit not given)) was 76%. For the same compound, the “%inh” value (human recombinant PLK1; conc 10 (unit not given)) was 91%, the “%inh” value (human recombinant PLK1; conc 100 (unit not given)) was 96% and the IC50 (human recombinant PLK1) was 25 ± 1 nM. The “Gene expression Bcl-2 (anti-apoptotic gene)” value [7] was 0.351 fold, the “elevation in the late apoptotic stage” value (MDA-MB-231 cells [8]) was ~110.2 fold and the “increase in early apoptosis” value (MDA-MB-231 cells [8]) was 24.4 fold. For the same compound, the “increase in total apoptosis” value (MDA-MB-231 cells [8]) was 16.3 fold, the “rise of necrotic percent” value (MDA-MB-231 cells [8]) was 2.8 fold and the IC50 (BRD4 (BD2)) was 17 ± 1 nM.
